What all share (test): microbial growth inhibition plus red cell haemolysis – Idler compounds, first plate, PMBN-permeabilized strains, profiling panel (AID 2061108)
Design in all cases: haemolysis: dose or concentration left out as unconfirmed

Assay [1] has as its system M. abscessus growth inhibition, 10 uM. The following applies: S. aureus ATCC 9144 growth inhibition; measured here: M. abscessus; at 10 µM.
The test system of assay [2] is E. coli NCTC 12923 growth inhibition, 100 uM. The conditions noted are these: E. coli NCTC 12923 growth inhibition, 100 µM; stronger effect = higher value.
Assay [3] concerns E. coli NCTC 12923 + PMBN growth inhibition, 100 uM. The following applies: S. aureus ATCC 9144 growth inhibition; measured here: E. coli plus PMBN; at 100 µM; stronger effect = higher value.
Assay [4] has as its system C. albicans NCPF 3281 growth inhibition, 100 uM. The following applies: S. aureus ATCC 9144 growth inhibition; measured here: C. albicans NCPF 3281; at 100 µM; stronger effect = higher value.
Assay [5] relates to M. avium growth inhibition, 10 uM. The following applies: M. avium growth inhibition, 10 µM.
In assay [6] the test system is A. baumannii ATCC 17978 + PMBN growth inhibition, 100 uM. The following applies: A. baumannii plus PMBN growth inhibition, 100 µM; stronger effect = higher value.
Assay [7] relates to S. aureus ATCC 9144 growth inhibition, 100 uM. The following applies: S. aureus ATCC 9144 growth inhibition; at 100 µM; stronger effect = higher value.
For assay [8], the system named is red blood cell haemolysis. The conditions noted are these: stronger effect = higher value; dose or concentration not given here.
The subject of assay [9] is A. baumannii ATCC 17978 growth inhibition, 100 uM. The conditions noted are these: S. aureus ATCC 9144 growth inhibition; measured here: A. baumannii ATCC 17978; at 100 µM; stronger effect = higher value.

Active and inactive are the calls of the source. The rule behind the calls is not given here.

Take `O=C(O)c1cc(-c2ccco2)on1`: the inhibition in [1] was -0.23%; in assay [2], 1.89%; in assay [3], 3.29%; in assay [4] it was -23.7%; in assay [5] it was -0.19%; in assay [6], 19.4%. Moreover, the inhibition in assay [7] is 20.4% (inactive); in assay [9], -3.73%. Besides, the haemolysis in assay [8] is 0.22%.

Turning to `NC(=O)CSc1nnc(COc2ccccc2)n1-c1ccccc1`, the inhibition is 0.484% in [1]; -3.24% in assay [2]; 2.8% in assay [3]; -39.3% in assay [4]; 0.364% in [5]; 23.4% in assay [6]. For the same compound, the inhibition was 15.3% (inactive) in [7] and 0.843% in assay [9]. For the same compound, in assay [8], the haemolysis came out at 0.123%.

Regarding `O=C(Nc1ccccc1)C(Cl)C(=O)c1ccccc1` (stereo not given), the inhibition was -1.14% in assay [1]; 20.3% in assay [2]; 61.4% in [3]; 101% in assay [4]; 1.66% in assay [5]; 98.6% in assay [6]. For the same compound, the results for the inhibition in assay [7] and in [9] were 100% and 37.9%, respectively. The haemolysis in assay [8] was -0.111%.

For the compound `O=S(=O)(F)c1cccc(NCc2ccc(F)cc2)n1`, the inhibition in assay [1] was -1.1%; in assay [2], -1.49%; in assay [3], 0.494%; in assay [4], -98.2%; in assay [5], 1.19%; in [6], 16.7%. Moreover, the inhibition in assay [7] was 13% (inactive); in assay [9], -3.33%. For the same compound, in assay [8], the haemolysis was -0.396%.

Consider `Cn1nc(NC(=O)Nc2ccc(Cl)cc2)cc1C(C)(C)C`, for which the inhibition was -0.422% in [1]; -25% in assay [2]; -30.4% in assay [3]; -94% in [4]; 0.567% in assay [5]; -3% in assay [6]. Moreover, the inhibition in [7] is -14.7% (inactive); in [9], -22%. The haemolysis in [8] turned out to be 0.275%.

Consider `O=C(Nc1cccc(C(F)(F)F)c1)C(Cl)C(=O)c1ccccc1` (stereo not given), for which the inhibition in assay [1] worked out at 0.0425%; in assay [2], 34.5%; in assay [3], 100%; in assay [4] it was 101%; in assay [5] it was 1.13%; in assay [6], 99.6%. For the same compound, the values for the inhibition in assay [7] and in [9] were 101% and 46.6%, respectively. The haemolysis in assay [8] was determined as 0.0983%.

For `Cc1ccn2c(=O)nc(SCC(=O)OCc3ccccc3)nc2c1`, the inhibition in assay [1] is -0.803%; in assay [2], -34.5%; in assay [3], -29.4%; in assay [4], -102%; in assay [5] it was -0.191%; in [6], 5.22%. Also, the inhibition was 7% (inactive) in assay [7] and 0.238% in [9]. In addition, in assay [8], the haemolysis was -0.0134%.

Take `COc1ccc(Nc2nc(-c3ccoc3)cs2)c(C)c1`: the inhibition in assay [1] is -1.05%; in assay [2], -15%; in assay [3], -20.1%; in [4], -127%; in [5], 0.988%; in [6], 16.4%. The inhibition is -12.5% (inactive) in assay [7] and -13.9% in assay [9]. In addition, the haemolysis in assay [8] came out at 0.164%.

`CC1=CC(=O)C=C(C)C1=NOS(=O)(=O)c1ccc(Cl)cc1`: the inhibition in [1] was -0.716%; in assay [2], -42.6%; in assay [3], -20.5%; in [4] it was -1.74%; in assay [5], -0.499%; in assay [6], -8.84%. Moreover, the inhibition in assay [7] was 98.2%; in assay [9], -15.4%. In addition, the haemolysis in assay [8] was 0.0834%.

On to `CN(C)C(=O)c1cncc(-c2cccc(C3(C#N)CC3)c2)c1`, for which the inhibition in assay [1] was -0.0258%; in assay [2] it was -5%; in assay [3], -3.05%; in assay [4], -67.1%; in assay [5], 0.148%; in assay [6], 23.7%. Besides, the values for the inhibition in assay [7] and in [9] were 4.91% (inactive) and 3.37%, respectively. In [8], the haemolysis was 0.107%.

Consider `CCC(C)NS(=O)(=O)CCCOc1ccc(F)cc1` (stereo not given), for which the inhibition is -0.898% in [1]; 0% in assay [2]; -9.51% in assay [3]; -63.1% in assay [4]; -0.527% in assay [5]; 28.8% in assay [6]. The values for the inhibition in assay [7] and in [9] were 10.3% (inactive) and -4.88%, respectively. Besides, the haemolysis in assay [8] was -0.19%.

Regarding `COc1cc2nc(Nc3cc(C)[nH]n3)nc(NC3CCN(C(=O)OC(C)(C)C)CC3)c2cc1OC`, the inhibition is 0.14% in [1]; 14.5% in assay [2]; 78.8% in assay [3]; -108% in [4]; 3.94% in [5]; 70.4% in [6]. In addition, the inhibition in assay [7] was 99.8%; in assay [9] it was 48.6%. In [8], the haemolysis stood at 2.1%.

For the compound `Oc1ccc(CN2CCN(c3ccccc3F)CC2)c2cccnc12`, the inhibition was 0.148% in assay [1]; -2.43% in assay [2]; 6.46% in assay [3]; 95.2% in [4]; -0.052% in assay [5]; 18.1% in assay [6]. Also, the inhibition was 6.49% in assay [7] and 14.6% in [9]. Also, the haemolysis in assay [8] was 1.25%.

For `O=C(NC1(c2ccc(Br)cc2)COC1)c1ccc(N2CCOCC2)cc1`, the inhibition was -1% in assay [1]; -5.27% in [2]; 4.32% in assay [3]; -56.4% in [4]; -0.734% in assay [5]; 17.5% in assay [6]. Besides, the values for the inhibition in assay [7] and in assay [9] were 5.33% (inactive) and 1.43%, respectively. The haemolysis in assay [8] was 0.177%.

`O=C(CSc1nc(=O)[nH]c2c1CCC2)c1ccc(Cl)cc1`: the inhibition in [1] is -0.381%; in assay [2], -22%; in assay [3], -20%; in assay [4], -110%; in [5], 0.488%; in assay [6], 10.9%. Also, the results for the inhibition in [7] and in assay [9] were -14.2% (inactive) and 0%, respectively. For the same compound, in assay [8], the haemolysis was 0.151%.

Regarding `Cc1ccc(CN2C(=O)NC3(CCN(C(=O)C(C)Oc4ccccc4)CC3)C2=O)cc1` (stereo not given), the inhibition in assay [1] is -1.03%; in assay [2], -2.03%; in [3], 22.5%; in assay [4] it was -57.6%; in [5] it was -0.615%; in [6], 22.5%. Also, the inhibition was 8.83% (inactive) in assay [7] and -7.26% in [9]. Also, in assay [8], the haemolysis was -0.00857%.

In the case of `COc1cc2nc(Nc3cc(C)[nH]n3)nc(N3CC(N(C)C)C3)c2cc1OC`, the inhibition in assay [1] is -0.369%; in assay [2] it was 5.14%; in assay [3], -10.1%; in [4], 13.3%; in assay [5], 1.81%; in assay [6], 17.5%. In addition, the inhibition in [7] was 33% (inactive); in assay [9], 3.33%. Besides, in assay [8], the haemolysis was 0.198%.

Consider `O=c1[nH]c(=O)c2cc(S(=O)(=O)Nc3cc(F)c(N4CCC(N5CCOCC5)CC4)c(F)c3)ccc2[nH]1`, for which the inhibition in assay [1] is -0.0703%; in [2], -6.35%; in [3], 1.59%; in assay [4] it was -44.5%; in assay [5], 0.48%; in [6], 19.7%. Further, the inhibition was 14.7% (inactive) in [7] and 4.34% in assay [9]. Also, the haemolysis in [8] was determined as 0.307%.

Take `N#CC1(c2cccc(-c3cccc4c3CCOC4C(=O)O)c2)CC1` (stereo not given): the inhibition was 0.107% in [1]; -6.62% in [2]; -11.3% in [3]; -60.5% in assay [4]; -1.43% in [5]; 20.9% in assay [6]. Besides, the inhibition in [7] is -2.28% (inactive); in assay [9], -4.34%. The haemolysis in assay [8] was 0.0202%.

With `CCCOc1cc(S(=O)(=O)n2cccn2)ccc1Br`, the inhibition in assay [1] was -0.42%; in assay [2], -38.1%; in assay [3], -8.29%; in assay [4], -62.6%; in assay [5] it was -1.53%; in [6], 18.4%. Moreover, the inhibition in [7] is -33.2% (inactive); in assay [9] it was -7.35%. In [8], the haemolysis is 0.858%.

Values taken from PubChem BioAssay AID2061108 (Research group of Professor Matthew Todd, School of …, 2025).
